# Reference: publication PMC5608804, “Stepwise Evolution Improves Identification of Diverse Peptides Binding to a Protein Target” (Scientific Reports, 2017)
# Square brackets hold non-standard residues; d marks the D form. Peptide text beside a SMILES is read from it.
# Key:
# [1] = molecular target: T1, streptavidin (Streptomyces avidinii, UniProt P22629); assay: Cy5-streptavidin binding on cyclic discovery array, paired cyclic/linear 5-mer L/D-peptides; settings: Cy5-SA, three independent replicates on the same array, cyclic vs linear features
# T1 construct: purchased GE Healthcare (Little Chalfont, UK)
# T1 sequence (P22629 25-183): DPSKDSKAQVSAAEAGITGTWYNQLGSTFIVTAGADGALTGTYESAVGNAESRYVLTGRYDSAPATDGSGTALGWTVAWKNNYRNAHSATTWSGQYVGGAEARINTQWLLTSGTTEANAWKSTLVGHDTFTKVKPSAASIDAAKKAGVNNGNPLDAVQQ
# Description: To identify cyclic peptide binders to streptavidin, Cy5-SA was bound to an array library of 388,962 5-mer L/D-peptides. The pentameric peptides were composed of a 4-mer peptide synthesized with a combination of uncharged L- and D-amino acids and a γ-Glu: this residue enabled synthesis of both head-to-tail cyclic and linear peptides, respectively, for each peptide through either allyl ester or t-butyl ester C-terminal protection (see Materials and Methods for amino acid composition and cyclization protocol). The paired cyclic and linear array features were spatially positioned side-by-side to control for potential variations in cyclization yield for each peptide. The fluorescence signal intensities across three independent replicates on the same array were compared and the ratio cyclic to linear peptide of signal intensities was compared.
# The combined cyclic and linear peptide libraries were synthesized starting with either the allyl ester (OAll) or t-butyl ester, respectively, of N-(2-nitrophenyl)propoxycarbonyl (NPPOC)-protected glutamate (γ-Glu) linked to the array surface through the carboxylic acid side chain. […]
# Cy5 fluorescence intensity of the arrays was measured with an MS200 scanner (Roche NimbleGen, Madison, WI) at resolution 2 µm, wavelength 635 nm, gain 25%, and laser intensity 100%. […]
# [2] = molecular target: T1, streptavidin; assay: SPR analysis of peptide binding to immobilized streptavidin (Biacore X100); settings: SPR sensorgrams, immobilized streptavidin
# Experimental: SPR analysis of peptide binding to streptavidin was performed with streptavidin immobilized on a chip and peptides in solution (see Materials and Methods).
# Surface Plasmon Resonance (SPR) experiments were performed using a Biacore X100 instrument (GE Healthcare). 60 µl of 100 µg/ml streptavidin in 10 mM Na-acetate (pH 5.0) was immobilized to flow cell 2 (Fc2) of a sensor chip CM5 (GE Healthcare) using the Amine Coupling Kit (GE Healthcare) at 20 °C for 6 min. Peptide stock solutions were prepared at 5 or 10 mM in H2O and diluted in HBS-EP+ (GE Healthcare) buffer. Peptide binding was performed in a multiple kinetics mode using HBS-EP+ as a running buffer and 0.2 M NaCl, 10 mM NaOH, or 10 mM HCl-glycine (pH 1.7) as the regeneration buffer. Binding kinetics parameters were calculated using Biacore X100 software.
smiles,measurement,setting,value
NC(=O)CC[C@@H]1NC(=O)[C@H](Cc2c[nH]c3ccccc23)NC(=O)[C@H]2CCCN2C(=O)[C@H](CCC(N)=O)NC(=O)[C@H](CC(N)=O)NC1=O [NQpWQ (head-to-tail cyclic)] (cyclo(NQ[dP]WQ)),fluorescence signal intensity on cyclic discovery array,[1],highest fluorescence signal intensity
same,type of SPR binding kinetics,[2],fast on/fast off
